From the NIST ThermoML archive (doi:10.1021/je0601098)
± gives the expanded uncertainty stated by the source.

What was measured:
[1] = 298.15 K, 101 kPa, Liquid; for speed of sound: Linear variable-path acoustic interferometer
[2] = mn = molality of the nth substance listed, in mol/kg; settings: 298.15 K, 101 kPa, Liquid; for speed of sound: Linear variable-path acoustic interferometer

C1COCCO1 [1,4-dioxane]
[1]
Settings | mass density [kg/m3] | speed of sound [m/s]
– | 1028.34 ± 0.38 | 1346.3 ± 1.9

C1COCCO1 [1,4-dioxane] + O
[2]
Settings | mass density [kg/m3] | speed of sound [m/s]
m2 = 0 | 1028.34 ± 0.38 | 1346.3 ± 1.9
m2 = 0.07165 | 1028.35 ± 0.38 | 1347.1 ± 1.9
m2 = 0.1214 | 1028.36 ± 0.38 | 1347.8 ± 1.9
m2 = 0.1625 | 1028.37 ± 0.38 | 1348.4 ± 1.9
m2 = 0.2272 | 1028.39 ± 0.38 | 1349.2 ± 1.9
m2 = 0.3262 | 1028.42 ± 0.38 | 1350 ± 1.9
m2 = 0.4214 | 1028.46 ± 0.38 | 1350.9 ± 1.9
m2 = 0.6512 | 1028.57 ± 0.38 | 1353 ± 1.9
m2 = 0.8375 | 1028.67 ± 0.38 | 1354.8 ± 1.9
m2 = 1.022 | 1028.78 ± 0.38 | 1356.5 ± 1.9

CC#N [acetonitrile]
[1]
Settings | mass density [kg/m3] | speed of sound [m/s]
– | 776.389 ± 0.59 | 1281.3 ± 1.9

CC#N [acetonitrile] + O
[2]
Settings | mass density [kg/m3] | speed of sound [m/s]
m2 = 0 | 776.389 ± 0.59 | 1281.3 ± 1.9
m2 = 0.1197 | 776.819 ± 0.59 | 1281.5 ± 1.9
m2 = 0.1729 | 777.019 ± 0.59 | 1282 ± 1.9
m2 = 0.2244 | 777.174 ± 0.59 | 1282.2 ± 1.9
m2 = 0.2674 | 777.435 ± 0.59 | 1282.4 ± 1.9
m2 = 0.3192 | 777.518 ± 0.59 | 1282.2 ± 1.9
m2 = 0.4188 | 777.923 ± 0.59 | 1282.6 ± 1.9
m2 = 0.5198 | 778.218 ± 0.59 | 1283 ± 1.9
m2 = 0.621 | 778.584 ± 0.59 | 1284 ± 1.9
m2 = 0.7217 | 778.921 ± 0.59 | 1284.3 ± 1.9
m2 = 0.8212 | 779.276 ± 0.59 | 1284.7 ± 1.9
m2 = 0.9205 | 779.631 ± 0.59 | 1285.5 ± 1.9
m2 = 1.02 | 779.949 ± 0.59 | 1286.5 ± 1.9

CCCCO [butan-1-ol]
[1]
Settings | mass density [kg/m3] | speed of sound [m/s]
– | 806.024 ± 0.56 | 1241.6 ± 1.9

CCCCO [butan-1-ol] + O
[2]
Settings | mass density [kg/m3] | speed of sound [m/s]
m2 = 0 | 806.024 ± 0.56 | 1241.6 ± 1.9
m2 = 0.1588 | 806.701 ± 0.56 | 1242.9 ± 1.9
m2 = 0.2034 | 806.906 ± 0.56 | 1243.3 ± 1.9
m2 = 0.2526 | 807.034 ± 0.56 | 1243.2 ± 1.9
m2 = 0.3019 | 807.215 ± 0.56 | 1243.6 ± 1.9
m2 = 0.3998 | 807.558 ± 0.56 | 1244.5 ± 1.9
m2 = 0.5007 | 807.906 ± 0.56 | 1246.2 ± 1.9
m2 = 0.6011 | 808.262 ± 0.56 | 1247 ± 1.9
m2 = 0.705 | 808.615 ± 0.55 | 1248 ± 1.9
m2 = 0.8032 | 808.946 ± 0.55 | 1248.8 ± 1.9
m2 = 0.9017 | 809.283 ± 0.55 | 1249.7 ± 1.9

CN(C)C=O [dimethylformamide]
[1]
Settings | mass density [kg/m3] | speed of sound [m/s]
– | 944.076 ± 0.39 | 1460.2 ± 2

CN(C)C=O [dimethylformamide] + O
[2]
Settings | mass density [kg/m3] | speed of sound [m/s]
m2 = 0 | 944.076 ± 0.39 | 1460.2 ± 2
m2 = 0.08457 | 944.384 ± 0.39 | 1461.1 ± 2
m2 = 0.1304 | 944.54 ± 0.39 | 1461.8 ± 2
m2 = 0.1738 | 944.701 ± 0.39 | 1462.4 ± 2
m2 = 0.2315 | 944.826 ± 0.39 | 1463.9 ± 2
m2 = 0.2762 | 945.027 ± 0.39 | 1464.1 ± 2
m2 = 0.3215 | 945.143 ± 0.39 | 1464.2 ± 2
m2 = 0.4146 | 945.584 ± 0.39 | 1465.5 ± 2
m2 = 0.5189 | 945.835 ± 0.39 | 1467.4 ± 2
m2 = 0.6115 | 946.263 ± 0.39 | 1468.1 ± 2
m2 = 0.7123 | 946.49 ± 0.39 | 1469.4 ± 2
m2 = 0.81 | 946.853 ± 0.39 | 1470.7 ± 2
m2 = 0.9044 | 947.103 ± 0.39 | 1472.3 ± 2
m2 = 1.001 | 947.417 ± 0.39 | 1473.3 ± 2
